The record followed here is the OligoGym collection.

This series deals with IRF4. The note with it: ASO.

Values joined by “and” are separate entries in the source; they are usually repeats but may differ in a detail not shown here. Equal values may be shown once. After the bases stand the sugars from the 5' end (letter, count) and the backbone: PS all phosphorothioate, else s phosphorothioate and o phosphodiester by linkage. Methylation of C is not given here. e = 2'-O-(2-methoxyethyl) (MOE); k = constrained ethyl (cEt); d = 2'-deoxy (DNA)

As for GACAGAAGATCTCTAC (sugars k3 d10 k3, PS), for the setting “SK-MEL-28, 4 µM”, the target mRNA inhibition is 17%.

GACAGAGAGTCCGACG (sugars k3 d10 k3, PS): where the note is “SK-MEL-28, 4 µM”, the target mRNA inhibition was -1%.

Take GACAGATGGCATGCGA (sugars k3 d10 k3, PS): the target mRNA inhibition (MM.1R, 1 µM) stood at 16%.

Take GACAGCATAGCATTAT (sugars k3 d10 k3, PS): the target mRNA inhibition (SK-MEL-28, 4 µM) was 72% and 77%.

Turning to “GACAGTGACTTGCATC (sugars k2 d9 e3 k2, PS)”, where the note is “MM.1R, 1 µM”, the target mRNA inhibition worked out at 24%.

For the sequence GACAGTGACTTGCATC (sugars k3 d10 k3, PS), the target mRNA inhibition (MM.1R, 1 µM) was found to be 24%.

Turning to “GACAGTGACTTGCATC (sugars kkdddddddddekeke, PS)”, the target mRNA inhibition (MM.1R, 1 µM) turned out to be 30%.

On to GACATACCTACAAGCA (sugars k3 d10 k3, PS), for which, for the setting “SK-MEL-28, 4 µM”, the target mRNA inhibition amounted to 50%.

For the sequence GACATTACTAGATTGT (sugars k3 d10 k3, PS), the target mRNA inhibition (SK-MEL-28, 4 µM) amounted to 70%.

Regarding GACCACGCCCCTCTCC (sugars k3 d10 k3, PS), the target mRNA inhibition (SK-MEL-28, 4 µM) amounted to 55%.

As for GACCAGCTTTTTCAAA (sugars k3 d10 k3, PS), the target mRNA inhibition (SK-MEL-28, 4 µM) is 38%.

For GACCATCTGATCCGGA (sugars k3 d10 k3, PS), the target mRNA inhibition (MM.1R, 1 µM) was determined as 2%.

With GACCTTTACTTCATTC (sugars k3 d10 k3, PS), the target mRNA inhibition (SK-MEL-28, 4 µM) was found to be 52%.

Take GACGAAAACAGCCGCC (sugars k3 d10 k3, PS): the target mRNA inhibition (SK-MEL-28, 4 µM) came to 62%.

On to GACTAACTCTCCTGTT (sugars k3 d10 k3, PS), for which, where the note is “SK-MEL-28, 4 µM”, the target mRNA inhibition is 17%.

As for GACTATTAGATAAGTA (sugars k3 d10 k3, PS), the target mRNA inhibition (SK-MEL-28, 4 µM) was determined as 29%.

For the sequence GACTTAACCCACATCA (sugars k3 d10 k3, PS), the target mRNA inhibition (SK-MEL-28, 4 µM) is -166%.

In the case of GACTTAATTCTGGGTT (sugars k3 d10 k3, PS), where the note is “SK-MEL-28, 4 µM”, the target mRNA inhibition was determined as 35%.

As to GAGAATTCCAAACCTT (sugars k3 d10 k3, PS), the target mRNA inhibition runs as follows: (MM.1R, 0.0625 µM) 6%; (MM.1R, 0.074 µM) 1%; (MM.1R, 0.222 µM) 13%; (MM.1R, 0.25 µM) 5%; (MM.1R, 0.666 µM) 38%; (MM.1R, 1 µM) 15%. The target mRNA inhibition is 69% (MM.1R, 2 µM); 55% (MM.1R, 4 µM); 76% (SK-MEL-28, 4 µM).

Consider GAGAGCTACGCAATCT (sugars k3 d10 k3, PS), for which the target mRNA inhibition (SK-MEL-28, 4 µM) was found to be 57%.

As to GAGAGTAAACTTGGCT (sugars k3 d10 k3, PS), where the note is “MM.1R, 1 µM”, the target mRNA inhibition is 12%.

In the case of GAGATAAGAAGCACTG (sugars k3 d10 k3, PS), the target mRNA inhibition (SK-MEL-28, 4 µM) came out at 44%.

Consider GAGATACTTGTACTGT (sugars k3 d10 k3, PS), for which the target mRNA inhibition (MM.1R, 0.0625 µM) was -2%; the target mRNA inhibition (MM.1R, 0.25 µM) was determined as 18%; the target mRNA inhibition (MM.1R, 1 µM) is 49% and 57%; the target mRNA inhibition (MM.1R, 4 µM) turned out to be 84%.

On to GAGATATAAATAGCTG (sugars k3 d10 k3, PS), for which the target mRNA inhibition (SK-MEL-28, 4 µM) came out at 51%.

GAGCAAATTGAGACCA (sugars k3 d10 k3, PS): the target mRNA inhibition (SK-MEL-28, 4 µM) is 55%.

GAGCAGAACGAGGTAA (sugars k3 d10 k3, PS): the target mRNA inhibition (SK-MEL-28, 4 µM) amounted to 55%.

For GAGCATCACTATTAAG (sugars k3 d10 k3, PS), where the note is “MM.1R, 1 µM”, the target mRNA inhibition came out at 14%.

Consider GAGCCGCCACATCAGC (sugars k3 d10 k3, PS), for which the target mRNA inhibition (SK-MEL-28, 4 µM) came to 23%.

Consider GAGCCTGGGACTCAGG (sugars k4 d8 k4, PS), for which the target mRNA inhibition (SK-MEL-28, 4 µM) came to 19%.

In the case of GAGCGGCCGTGGTGAG (sugars k3 d10 k3, PS), where the note is “SK-MEL-28, 4 µM”, the target mRNA inhibition amounted to 41%.

In the case of GAGGAACTAGTCGACA (sugars k3 d10 k3, PS), the target mRNA inhibition (SK-MEL-28, 4 µM) is 39%.

GAGGAAGCATAGAACA (sugars k3 d10 k3, PS): under “SK-MEL-28, 4 µM”, the target mRNA inhibition is 18%.

Regarding GAGGACCACGCCCCTC (sugars k3 d10 k3, PS), the target mRNA inhibition (SK-MEL-28, 4 µM) was -3%.

GAGGACTTATTTGTGG (sugars k3 d10 k3, PS): the target mRNA inhibition (MM.1R, 1 µM) was found to be 22%.

In the case of GAGGGTCTGGAAACTC (sugars k4 d8 k4, PS), the target mRNA inhibition (SK-MEL-28, 4 µM) worked out at 8%.

Turning to GAGGTAAATCTTCACT (sugars k3 d10 k3, PS), the target mRNA inhibition (SK-MEL-28, 4 µM) stood at 70%.

In the case of GAGGTTTTCCTAAATA (sugars k3 d10 k3, PS), the target mRNA inhibition (SK-MEL-28, 0.185 µM) amounted to 20%; the target mRNA inhibition (SK-MEL-28, 4 µM) turned out to be 69%; the target mRNA inhibition (SK-MEL-28, 5 µM) is 75%; the target mRNA inhibition (SK-MEL-28, 15 µM) turned out to be 89%.

With GAGTTGTACAGGACAG (sugars k3 d10 k3, PS), the target mRNA inhibition (MM.1R, 1 µM) is 51% and 52%.

GATAACGAGGTGCCTT (sugars k3 d10 k3, PS): the target mRNA inhibition (SK-MEL-28, 4 µM) worked out at 18%.

In the case of GATAAGGCACTACTTC (sugars k3 d10 k3, PS), under “SK-MEL-28, 4 µM”, the target mRNA inhibition is 47%.

Consider GATACAAAACGGACTG (sugars k3 d10 k3, PS), for which the target mRNA inhibition (SK-MEL-28, 4 µM) came out at 44%.

With GATACAGCAGGCACTT (sugars k3 d10 k3, PS), the target mRNA inhibition (SK-MEL-28, 4 µM) amounted to 63%.

As to GATATAAATAGCTGTT (sugars k4 d8 k4, PS), the target mRNA inhibition reads like this: (MM.1R, 0.074 µM) 5% and 3%; (MM.1R, 0.222 µM) 6% and 15%; (MM.1R, 0.666 µM) 12%; (MM.1R, 2 µM) 24% and 19%; (SK-MEL-28, 0.185 µM) 2% and 6% and 10%; (SK-MEL-28, 4 µM) 61%. For the same sequence, the target mRNA inhibition (SK-MEL-28, 5 µM) was 57% and 76%.

Take GATATCAAAGATCTCC (sugars k3 d10 k3, PS): the target mRNA inhibition (SK-MEL-28, 4 µM) was 57%.

GATCACTCAGAATTTT (sugars k3 d10 k3, PS): where the note is “SK-MEL-28, 4 µM”, the target mRNA inhibition stood at 50%.

In the case of GATCATAAAGGACAAT (sugars k3 d10 k3, PS), the target mRNA inhibition (SK-MEL-28, 4 µM) worked out at 30%.

As to GATCTCCATGGTGCAG (sugars k3 d10 k3, PS), the target mRNA inhibition (MM.1R, 1 µM) was 22% and 12%.

For the sequence GATGACTCCATGAGGT (sugars k3 d10 k3, PS), where the note is “SK-MEL-28, 4 µM”, the target mRNA inhibition worked out at 67%.

With GATGCTCAGAATGAAG (sugars k3 d10 k3, PS), the target mRNA inhibition (SK-MEL-28, 4 µM) was 43%.

Take GATGGGACCGCCCTGG (sugars k3 d10 k3, PS): where the note is “MM.1R, 1 µM”, the target mRNA inhibition was -13%.

For GATGTATACCAACGAC (sugars k3 d10 k3, PS), the target mRNA inhibition (SK-MEL-28, 4 µM) worked out at 68%.

Turning to “GATGTGATAGCTGAGC (sugars kddddddddddkekek, PS)”, the target mRNA inhibition (MM.1R, 1 µM) was found to be 50%.

As for “GATGTGATAGCTGAGC (sugars kdddddddddkekeke, PS)”, under “MM.1R, 1 µM”, the target mRNA inhibition worked out at 18%.

With “GATTATATACTGGTTG (sugars k2 d9 e3 k2, PS)”, the target mRNA inhibition (MM.1R, 1 µM) worked out at 42%.

Regarding GATTATATACTGGTTG (sugars k3 d10 k3, PS), the target mRNA inhibition (SK-MEL-28, 4 µM) is 59%.

With “GATTATATACTGGTTG (sugars kkdddddddddekeke, PS)”, the target mRNA inhibition (MM.1R, 1 µM) is 46%.

In the case of GATTGATGTGATAGCT (sugars k3 d10 k3, PS), for the setting “SK-MEL-28, 4 µM”, the target mRNA inhibition was 56%.

Consider GATTTCTAGGTAATCT (sugars k3 d10 k3, PS), for which the target mRNA inhibition (SK-MEL-28, 4 µM) was 31%.

Take GCAAAAAATATAACGG (sugars k3 d10 k3, PS): the target mRNA inhibition (SK-MEL-28, 4 µM) was found to be 47%.

With GCAAAAGAAACGAGTT (sugars k3 d10 k3, PS), the target mRNA inhibition (SK-MEL-28, 4 µM) is 8%.

Take GCAAGATGACTCCATG (sugars k3 d10 k3, PS): the target mRNA inhibition (SK-MEL-28, 4 µM) came to 63%.

Regarding GCAAGCTATATTAAAG (sugars k3 d10 k3, PS), the target mRNA inhibition was 1% (MM.1R, 0.0625 µM); 17% (MM.1R, 0.074 µM); 26% (MM.1R, 0.222 µM); 1% (MM.1R, 0.25 µM); 41% (MM.1R, 0.666 µM); -19% (MM.1R, 1 µM). Further, the target mRNA inhibition was determined as 82% (MM.1R, 2 µM); 1% (MM.1R, 4 µM); 71% (SK-MEL-28, 4 µM).

As for GCAAGCTGAATGCTCT (sugars k3 d10 k3, PS), the target mRNA inhibition (SK-MEL-28, 4 µM) turned out to be 53%.

On to GCAAGTCTACAGCCCC (sugars k3 d10 k3, PS), for which the target mRNA inhibition was -7% (MM.1R, 0.0625 µM); 7% (MM.1R, 0.25 µM); 68% (MM.1R, 4 µM).

Take GCAAGTGGAGGTCTTT (sugars k3 d10 k3, PS): the target mRNA inhibition (SK-MEL-28, 4 µM) is 74% and 79%.

As for GCAAGTGTCTAAAGTC (sugars k3 d10 k3, PS), under “MM.1R, 1 µM”, the target mRNA inhibition is 49% and 53%.

In the case of GCAATGAACGGAAGTT (sugars k3 d10 k3, PS), the target mRNA inhibition (SK-MEL-28, 4 µM) stood at 45%.

On to GCACAGCCGTCCGCCT (sugars k3 d10 k3, PS), for which, where the note is “SK-MEL-28, 4 µM”, the target mRNA inhibition was found to be 16%.

In the case of GCACAGGCGCGGACGC (sugars k3 d10 k3, PS), for the setting “MM.1R, 1 µM”, the target mRNA inhibition is -6%.

Turning to “GCACATCAATGTTTTA (sugars kddddddddddkekek, PS)”, the target mRNA inhibition (MM.1R, 1 µM) is 13% and 0%.

“GCACATCAATGTTTTA (sugars kkddddddddddkeke, PS)”: where the note is “MM.1R, 1 µM”, the target mRNA inhibition is 49% and 50%.

Consider “GCACATCAATGTTTTA (sugars kkdddddddddekeke, PS)”, for which the target mRNA inhibition (MM.1R, 1 µM) was 10% and 12%.

Take “GCACATCAATGTTTTA (sugars kkdddddddddkdkdk, PS)”: for the setting “MM.1R, 1 µM”, the target mRNA inhibition is 11% and 7%.

Consider GCAGCCAAGGATAACC (sugars k3 d10 k3, PS), for which the target mRNA inhibition (MM.1R, 1 µM) came out at 6%.

As for GCAGCTTCTCAATGTT (sugars k3 d10 k3, PS), under “SK-MEL-28, 4 µM”, the target mRNA inhibition was 43%.

Regarding GCAGTAAACGCAAGTC (sugars k3 d10 k3, PS), the target mRNA inhibition (SK-MEL-28, 4 µM) came out at 54%.

In the case of GCAGTCAATTGGACGC (sugars k3 d10 k3, PS), under “SK-MEL-28, 4 µM”, the target mRNA inhibition came out at 77%.

Take “GCAGTGATGTCAGGTT (sugars k3 d9 k3 e1, PS)”: the target mRNA inhibition by setting is: (MM.1R, 0.074 µM) 15%; (MM.1R, 0.222 µM) 33%; (MM.1R, 0.666 µM) 51%; (MM.1R, 1 µM) 62%; (MM.1R, 2 µM) 73%.

Regarding “GCAGTGATGTCAGGTT (sugars kkkddddddddkekek, PS)”, where the note is “MM.1R, 1 µM”, the target mRNA inhibition was determined as 36%.
